Patent publication US20250346885A1, “SYSTEMS AND METHODS FOR TARGETED CONTINUOUS GENOME MUTAGENESIS” (The Broad Institute, Inc., priority 2023, published 2025)

Experiments:
[1] = system: double-stranded DNA; conditions: average base pairs unwound in a single binding event; cited from earlier work
[2] = system: HEK3, TNF, and IL6 loci; assay: HACE editing rate and range with helicase and nickase variants (1000 bp window, local rate in 100 bp bins); type: cell-based, human; conditions: nCas9 D10A versus nCas9 H840A
Description: In one embodiment, HACE constructs were tested with different helicase enzymes.
The editing range of different HE constructs was then characterized. For each helicase, nickase, and loci combination, the respective HE, nCas9, and sgRNA combination was transfected into HEK293FT cells, genomic DNA was harvested after three days, and then a 1000 bp window was amplified by PCR for sequencing. The target-strand and non-target strand nickase had similar long range editing performance (FIG. 5C-D, FIG. 10B-C). […] Thus, the nCas9 binding and DNA-sgRNA duplex might obstruct the helicase loading on the non-nicked single-stranded DNA.
In another embodiment, the local average mutation rate was calculated in 100 bp bins for each genomic loci (FIG. 10D). […]
For long amplicon (˜2000 bp) sequencing, the targeted region was amplified using Phusion U Hot Start PCR master mix in a 20 μL reaction. […] The concentration of each sample was measured by Qubit (Thermo Fisher Scientific). […] Sequencing was performed on a NextSeq (Illumina) with paired-end reads (read1,100 bp; index1, 8 bp; index2, 8 bp; read2, 100 bp).
To calculate the mutation rate, it was filtered for base positions with a sequencing coverage of at least 10,000. […] The average G>A editing rate was calculated by extracting all positions where “G” was the reference base, then taking the average of the per base G>A editing rate. […]

[3] = system: HEK293FT cells; assay: CellTiter-Glo cell viability after transfection of HACE constructs; type: cell-based, human
Description: The effects of different HACE constructs on cell viability were then quantified. To do so, the cell viability was quantified using a luciferase-based ATP-assay (CellTiter-Glo) across various helicase constructs both with and without deaminase along with a loci-targeting sgRNA and nCas9 (FIG. 11A).
Cell viability was measured using the CellTiter-Glo Luminescent Cell Viability Assay (Promega) following the manufacturer's protocols. Briefly, HEK293FT cells were seeded at a density of 10,000 cells per 100 μL per well in a 96-well plate in biological triplicates. The following day, cells were transfected with respective HACE plasmids according to the above protocol. Cell viability was measured 72 h after transfection. Luminescence readings were performed using a SpectraMax M5 (Molecular Devices) plate reader.

Substance: BLM: human helicase; in b329, b331 and b335 the HE constructed with it
- processivity range [1]: over 200 base pairs
- preference of target and non-target strand nickase [2]: prefer both nickase variants equally
- cell viability (CellTiter-Glo) [3]: did not result in a significant decrease in cell viability
